What was measured:
[1] = target: human A2a receptor (Homo sapiens, UniProt P29274); test: Adenosine antagonistic activity, radioligand binding with [3H]CGS 21680; details: [3H]CGS 21680, 20 nM
Experimental: (§1) Test 1: Adenosine Antagonistic Activity
(§2) The adenosine antagonistic activity [Ki(nM)] of the test compound was examined by radioligand binding techniques using 8-cyclopentyl-1,3-dipropylxanthine, [dipropyl-2,3^−3H(N)] ([3H]DPCPX, 4.5 nM) for human A1 receptor and [3H]CGS 21680 (20 nM) for human A2a receptor.

[2] = target: T1, human A1 receptor (Homo sapiens, UniProt P30542); test: Adenosine antagonistic activity, radioligand binding with [3H]DPCPX; details: 4.5 nM
T1 sequence (P30542 1-326): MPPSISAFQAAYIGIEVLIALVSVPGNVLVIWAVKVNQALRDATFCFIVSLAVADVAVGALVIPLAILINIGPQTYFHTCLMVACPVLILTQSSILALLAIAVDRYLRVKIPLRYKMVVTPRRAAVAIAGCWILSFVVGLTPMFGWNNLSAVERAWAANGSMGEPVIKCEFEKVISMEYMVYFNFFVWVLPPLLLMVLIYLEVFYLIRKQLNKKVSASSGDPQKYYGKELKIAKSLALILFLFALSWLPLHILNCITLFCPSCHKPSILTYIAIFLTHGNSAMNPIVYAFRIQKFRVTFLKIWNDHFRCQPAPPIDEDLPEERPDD
Experimental: as §1, §2

[3] = tested on: ddY mice; test: Anticatalepsy activity in mouse (haloperidol-induced catalepsy); assay type: in vivo; details: 3.2 mg/kg orally, ddY mice (n=7); haloperidol 0.32 mg/kg i.p. 30 min after compound; measured 30 min after injection, bar test up to 30 sec
Experimental: Test 2: Anticatalepsy Activity in Mouse
The test compound (3.2 mg/kg) was administered orally with ddY mice(n=7). Then, haloperidol (0.32 mg/kg) was injected intraperitoneally 30 min. after the administration of the compound. Thirty minutes after the injection, the cataleptic responses of mice were measured. The forelimbs of each mouse were placed on a 3 cm high, 3 mm wide horizontal bar, and the duration of cataleptic posture was measured for up to 30 sec.

Sequence of human A2a receptor (P29274 whole entry): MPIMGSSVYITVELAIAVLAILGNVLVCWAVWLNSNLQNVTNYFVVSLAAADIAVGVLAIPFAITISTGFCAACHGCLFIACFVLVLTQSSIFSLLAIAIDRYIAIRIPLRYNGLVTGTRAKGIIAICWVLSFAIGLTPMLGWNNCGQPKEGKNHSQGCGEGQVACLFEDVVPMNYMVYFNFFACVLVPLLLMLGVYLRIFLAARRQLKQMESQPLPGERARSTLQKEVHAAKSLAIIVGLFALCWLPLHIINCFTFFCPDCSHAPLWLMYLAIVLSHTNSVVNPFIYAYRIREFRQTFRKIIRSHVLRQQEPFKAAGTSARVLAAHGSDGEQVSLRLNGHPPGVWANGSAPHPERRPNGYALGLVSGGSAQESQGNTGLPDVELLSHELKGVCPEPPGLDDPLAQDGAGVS

Row | Structure (SMILES) | Ki [1] [nM] | Ki [2] [nM] | melting point [°C] | Manifestation rate of catalepsy (number of mouse) [3]
1 | CCCCCC(=O)Nc1nc(-c2ccccc2)c(-c2ccc(=O)n(C(C)C)n2)s1 [Example 3, N-[5-(1-Isopropyl-6-oxo-1,6-dihydro-3-pyridazinyl)-4-phenyl-1,3-thiazol-2-yl]hexanamide] | 1.46 | 0.27 | 129 to 132 | 0/7
2 | Cc1cccc(NC(=O)Nc2nc(-c3ccccc3)c(-c3ccc(=O)n(C(C)C)n3)s2)c1 [Example 10, N-[5-(1-Isopropyl-6-oxo-1,6-dihydro-3-pyridazinyl)-4-phenyl-1,3-thiazol-2-yl]-N′-(3-methylphenyl)urea] | 3.08 | 0.38 | 242 to 243 | –
3 | CNc1nc(-c2ccccc2)c(-c2ccc(=O)n(C(C)C)n2)s1 [Example 15, 2-Isopropyl-6-[2-(methylamino)-4-phenyl-1,3-thiazol-5-yl]-3(2H)-pyridazinone] | 1.63 | 0.12 | 234 to 236 | 0/7
4 | CCNC(=O)c1nc(-c2ccccc2)c(-c2ccc(=O)n(C(C)C)n2)s1 [Example 214, N-ethyl-5-(1-isopropyl-6-oxo-1,6-dihydro-3-pyridazinyl)-4-phenyl-1,3-thiazole-2-carboxamide] | 1.52 | 1.14 | 172 to 174 | 0/7

Compounds with a lower Ki [1], results first:

Row | Ki [1] [nM] | Ki [2] [nM] | melting point [°C] | Structure (SMILES) | Manifestation rate of catalepsy (number of mouse) [3]
5 | 1.23 | 0.45 | 228 to 230 | CC(C)n1nc(-c2sc(NC(=O)c3ccccc3)nc2-c2ccc(F)cc2)ccc1=O [Example 78, N-[4-(4-Fluorophenyl)-5-(1-isopropyl-6-oxo-1,6-dihydro-3-pyridazinyl)-1,3-thiazol-2-yl]-benzamide] | 0/7
6 | 1.22 | 0.28 | 188 to 190 | COc1ccc(CC(=O)Nc2nc(-c3ccccc3)c(-c3ccc(=O)n(C(C)C)n3)s2)cc1 [Example 9, N-[5-(1-Isopropyl-6-oxo-1,6-dihydro-3-pyridazinyl)-4-phenyl-1,3-thiazol-2-yl]-2-(4-methoxyphenyl)acetamide] | 0/7
7 | 1.22 | 0.61 | 187 to 188 | CC(C)n1nc(-c2sc(NC(=O)CNCc3ccncc3)nc2-c2ccccc2)ccc1=O [Example 100, N-[5-(1-isopropyl-6-oxo-1,6-dihydro-3-pyridazinyl)-4-phenyl-1,3-thiazol-2-yl]-2-[(4-pyridinylmethyl)amino]acetamide] | 0/7
8 | 1.14 | 1.03 | 192 to 193 | CC(C)n1nc(-c2sc(C(=O)NCc3ccncc3)nc2-c2ccccc2)ccc1=O [Example 233, 5-(1-Isopropyl-6-oxo-1,6-dihydro-3-pyridazinyl)-4-phenyl-N-(4-pyridinylmethyl)-1,3-thiazole-2-carboxamide] | 0/7

Reference: patent US20050004134A1, “Thiazole derivative and pharmaceutical use thereof” (priority 2001, published 2005)
